Laboratory results as given in article PMC4718634, “Murine GPRC6A Mediates Cellular Responses to L-Amino Acids, but Not Osteocalcin Variants” (PLoS ONE, 2016).
Entries after “also recorded” stand apart in the source; their conditions may differ. Bridge positions count the residues as written; N and C are the ends. Ends that are not written are not given here.

How the values were obtained:
GPRC6A [1] = settings: ref [6] (supplement list); cited from earlier work
Text: (§1) Supplement pone.0146846.s004.docx, table 1 | column: Functional assay

mGPRC6A (mouse GPRC6A) = biological target: T1, mGPRC6A (mouse GPRC6A) (Mus musculus, UniProt Q8K4Z6); experiment: Ca^2+i mobilisation, FlpIn-TREx-HEK293-mGPRC6A cells; assay type: cell-based; settings: for activity in calcium mobilisation assays: with co-expressed Gαq or GαqG66D
T1 sequence (Q8K4Z6 21-928): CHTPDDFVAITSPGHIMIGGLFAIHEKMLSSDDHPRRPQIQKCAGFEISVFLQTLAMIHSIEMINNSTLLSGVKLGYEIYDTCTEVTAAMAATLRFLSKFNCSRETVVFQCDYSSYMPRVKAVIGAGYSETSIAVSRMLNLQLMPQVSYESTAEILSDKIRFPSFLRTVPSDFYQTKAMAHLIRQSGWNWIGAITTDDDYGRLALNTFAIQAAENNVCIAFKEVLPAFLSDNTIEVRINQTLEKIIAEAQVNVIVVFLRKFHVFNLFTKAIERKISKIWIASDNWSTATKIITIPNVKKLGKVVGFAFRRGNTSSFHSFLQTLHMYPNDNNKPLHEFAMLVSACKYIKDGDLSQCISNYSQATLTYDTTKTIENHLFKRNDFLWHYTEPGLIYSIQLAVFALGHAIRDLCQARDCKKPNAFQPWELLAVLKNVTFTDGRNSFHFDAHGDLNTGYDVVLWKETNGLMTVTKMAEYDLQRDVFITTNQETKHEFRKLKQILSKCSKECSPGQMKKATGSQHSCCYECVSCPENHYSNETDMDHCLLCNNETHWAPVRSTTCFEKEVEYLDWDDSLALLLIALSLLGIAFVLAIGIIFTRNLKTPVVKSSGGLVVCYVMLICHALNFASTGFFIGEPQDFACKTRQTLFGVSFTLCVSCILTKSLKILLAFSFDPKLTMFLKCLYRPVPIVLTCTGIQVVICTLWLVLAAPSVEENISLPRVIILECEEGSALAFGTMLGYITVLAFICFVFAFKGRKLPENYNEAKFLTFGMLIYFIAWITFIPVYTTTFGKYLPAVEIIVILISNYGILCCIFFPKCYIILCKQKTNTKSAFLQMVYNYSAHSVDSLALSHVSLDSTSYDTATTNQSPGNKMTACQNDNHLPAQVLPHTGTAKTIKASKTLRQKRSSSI
Method: pcDNA 5/FRT/TO constructs were isogenically integrated into a FlpIn-TREx-HEK293 cell line (Life Technologies). FlpIn-TREx-HEK293-mGPRC6A and FlpIn-TREx-HEK293-hGPRC6A cells were then selected using 600 μg/ml hygromycin and 5 μg/ml blasticidin and grown in culture medium consisting of Dulbecco’s Modified Eagle Medium (DMEM), supplemented with 10% (v/v) foetal bovine serum (FBS) at 37°C in 5% CO2 and were sub-cultured in a 1:3 ratio every 3–4 days. Cells were cultured overnight in the presence of 1 μg/ml tetracycline to induce GPRC6A expression. […] 48 h after transfection, cells were selected using 3 μg/ml puromycin and grown as above.
FlpIn-TREx-HEK293-mGPRC6A cells were seeded into T75 flasks at 70% confluency. Cells were transfected with 15μg of plasmid DNA (Gαq or GαqG66D) with Lipofectamine LTX according to manufacturer's instructions, then incubated for 24h at 37°C in 5% CO2. Cells were plated into 96-well plates (10^5 cells/well) and equilibrated at 37°C in 5% CO2 for 4-6h to adhere, whereupon cells were serum starved overnight at 37°C in 5% CO2. For the assay, cells were washed twice in Ca^2+ assay buffer (150 mM NaCl, 2.6 mM KCl, 1.2 mM MgCl2, 10 mM dextrose, 10 mM HEPES, 2.2 mM CaCl2, 0.5% (w/v) BSA and 4 mM probenecid; pH 7.4). Buffer was then replaced with Ca^2+ assay buffer containing 1μM Fluo-4-AM and incubated for 1h at 37°C in 5% CO2. Cells were washed twice more and replaced with Ca^2+ assay buffer at 37°C. Serial dilutions of test agonists were added by injection in a Flexstation™ (Molecular Devices) and fluorescence was measured at 485nm excitation and 520nm emission wavelengths. Agonist responses were normalised to the peak of response to 100 μM ATP.
(§2) Data for all HEK293 assays represent the mean ± SEM of at least three independent experiments (except cell impedance, n = 2). For GLP-1 release, the data represent mean ± SEM of three to five independent experiments (except for OCN, wash; n = 2). For insulin release assays, data represent the mean ± SEM of three independent experiments (except for islet studies; n = 2). Insulin release data were normalised to the response to vehicle in either low or high [glucose]. Statistical analysis for GLP-1 release data were performed by one-way ANOVA, followed by Sidak’s multiple comparisons test (treating wash / no wash datasets separately). Statistical analyses for insulin release data were performed by two-way ANOVA (with [glucose] and drug treatment as group variables), followed by Sidak’s multiple comparisons test. Where only high [glucose] groups were evaluated, statistical analysis was by one-way ANOVA followed by Sidak’s multiple comparisons test.

mC6A = settings: ref [10] (supplement list); cited from earlier work
Text: as §1

22RV1 / PC-3 = settings: endogenous; ref [9] (supplement list); cited from earlier work
Text: as §1

INS-1(832) cells = experiment: Label-free cell impedance, INS-1(832) cells; assay type: cell-based, rat; settings: Gprc6a-negative, EBSS, 2.8 mM glucose, Fig 7, two-way ANOVA, *P < 0.05, **P < 0.01 vs Vehicle
Method: For INS-1 cells, 100 μl of medium (RPMI 1640 no glucose, 10% FBS, 55 μM β-mercaptoethanol, 1 mM sodium pyruvate, 10 mM HEPES, 100 U/ml penicillin, 100 μg/ml streptomycin, 11.1 mM glucose) was added per well to an E-plate 96 and a background reading taken. Cells were seeded at 2 x 10^4 / well and the plates incubated in the instrument for 48 h. On the day of the experiment, media was changed to EBSS buffer (180 μl; 2.8 mM glucose, 1.8 mM CaCl2, 5.3 mM KCl, 0.8 mM MgSO4, 117 mM NaCl, 26 mM NaHCO3, 1 mM NaH2PO4). After 2 h incubation, cells were stimulated with 20 μl test compound (10 x final) prepared in the same buffer. Data capture and analysis were as for HEK293 cells.

GLUTag cells = experiment: GLP-1 release from GLUTag cells; assay type: cell-based, murine; settings: 0.01–10 ng/ml; with or without cell washing; 2 h; Fig 6A; listed as Human synthetic OCN
Method: Intestinal L-cell model GLUTag cells were seeded in 24-well plates coated with Matrigel and incubated for 6 days in DMEM with 10% FBS, 100 U/ml penicillin, 100 μg/ml streptomycin at 37°C in 5% CO2 and grown for 4–5 days. Where indicated, cells were washed (1 or 2 x 1h) with Krebs-HEPES buffer (20 mM HEPES, 118 mM NaCl, 4.7 mM KCl, 1.2 mM MgSO4, 5 mM NaHCO3, 1.2 mM KH2PO4, 2.5 mM CaCl2, 5.5 mM glucose, 0.2% BSA (w/v), pH 7.2) containing vildagliptin (300 μM) prior to addition of test compounds in the same buffer. After 2 h incubation at 37°C in 5% CO2, the supernatant was recovered and centrifuged at 500 rpm for 5 min. Where used, NPS-2143 pre-treatment was for 30 min.
GLP-1 content in the cell supernatant was measured by ELISA (EGLP-35K, Millipore), according to manufacturer’s instructions after overnight incubation of 15 μl supernatant in 100 μl Krebs-HEPES buffer at 4°C. After 5 x washes, 200 μl of detection conjugate was added and incubated for 2 h at RT. After 3 x washes the reaction was developed with 200 μl of diluted substrate (1:200) for 20 min and terminated by addition of 50 μl stop solution. After 5 min, fluorescence was then measured using 355 nm excitation and 460 nm emission, transforming the obtained signal into pmol GLP-1/well/ml and corrected for GLUTag cell protein content as determined using the method of Bradford (1976).
as §2, with “Concentration-response data were analysed using a three or four parameter logistic function (Motulsky & Christopoulos, 2004) to generate estimates of agonist potency (LogEC50). Data” for “Data”

GPRC6A [2] = settings: HEK293, mouse GPRC6A with human OCN; ref [11]; cited from earlier work
Text: Additional interest in GPRC6A has emerged due to several studies reporting that it mediates the metabolic and endocrine effects of the de-carboxylated form of the osteoblast-derived peptide, osteocalcin (OCN).

[Ca+2].[Cl-].[Cl-] [CaCl2]
SRE-reporter gene response (GPRC6A [1]): pERK1/2 – response to Ca^2+, Mg^2+, Gd^3+, Al^3+, NPS R568 SRE-reporter gene – response to CaCl2, SrCl2, MgCl2, GdCl3 and OCN

[Cl][Gd]([Cl])[Cl] [GdCl3]
SRE-reporter gene response (GPRC6A [1]): pERK1/2 – response to Ca^2+, Mg^2+, Gd^3+, Al^3+, NPS R568 SRE-reporter gene – response to CaCl2, SrCl2, MgCl2, GdCl3 and OCN

NC(=O)CC[C@H](N)C(=O)O [L-glutamine]
EC50 (mGPRC6A (mouse GPRC6A)): > 1 mM
activity in calcium mobilisation assays (mGPRC6A (mouse GPRC6A)): little or no activity

N[C@@H](Cc1c[nH]cn1)C(=O)O [L-histidine]
EC50 (mGPRC6A (mouse GPRC6A)): > 1 mM
activity in calcium mobilisation assays (mGPRC6A (mouse GPRC6A)): little or no activity

CC(C)[C@H](N)C(=O)O [L-valine]
EC50 (mGPRC6A (mouse GPRC6A)): > 1 mM
activity in calcium mobilisation assays (mGPRC6A (mouse GPRC6A)): little or no activity

[Cl-].[Cl-].[Mg+2] [MgCl2]
SRE-reporter gene response (GPRC6A [1]): pERK1/2 – response to Ca^2+, Mg^2+, Gd^3+, Al^3+, NPS R568 SRE-reporter gene – response to CaCl2, SrCl2, MgCl2, GdCl3 and OCN

COc1cccc([C@@H](C)NCCCc2ccccc2Cl)c1 [NPS R568]
pERK1/2 response (GPRC6A [1]): pERK1/2 – response to Ca^2+, Mg^2+, Gd^3+, Al^3+, NPS R568 SRE-reporter gene – response to CaCl2, SrCl2, MgCl2, GdCl3 and OCN

C[C@]1(O)CC[C@H]2[C@@H]3CCC4=CC(=O)CCC4=C3C=C[C@@]21C [R1881]
SRE-reporter gene response (mC6A): pERK1/2 – response to Testosterone-BSA, R1881 SRE-reporter gene – response to R1881, Ca^2+
pERK1/2 response (mC6A): pERK1/2 – response to Testosterone-BSA, R1881 SRE-reporter gene – response to R1881, Ca^2+
PSA, Runx2 expression response (22RV1 / PC-3): pERK1/2 – response to Ca^2+, ZnCl2, OCN, Arginine, Testosterone-BSA Proliferation – response to Ca^2+, OCN PSA, Runx2 expression – response to OCN, Arg, R1881 Chemotaxis (22RV1) – response to Ca^2+, OCN

[Cl-].[Cl-].[Sr+2] [SrCl2]
SRE-reporter gene response (GPRC6A [1]): pERK1/2 – response to Ca^2+, Mg^2+, Gd^3+, Al^3+, NPS R568 SRE-reporter gene – response to CaCl2, SrCl2, MgCl2, GdCl3 and OCN

YLYQWLGAPVPYPDPLEPRREVCELNPDCDELADHIGFQEAYRRFYGPV-NH2/-COOH (disulfide) [human synthetic OCN, synthetic de-carboxylated human osteocalcin, Federation Bioscience]
change in cell impedance (cell index) (INS-1(832) cells; listed as synthetic human OCN): significant changes in cell impedance; also recorded: Concentration-dependent increases in cell index
GLP-1 release, OCN (GLUTag cells): did not significantly modulate GLP-1 release

human OCN: in b69: synthetic human OCN of Fig 7; in b64: human OCN of ref 11 (YLYQWLGAPVPYPDPLEPRREVCELNPDCDELADHIGFQEAYRRFYGPV; disulfide 23-29 (inferred); not fully specified; printed as YLYQWLGAPVPYPDPLEPRREVCELNPDCDELADHIGFQEAYRRFYGPV-NH2/-COOH; ends not checked; UniProt P02818 52-100, looked up)
change in cell impedance (cell index) (INS-1(832) cells): significant, concentration-dependent activity
OCN concentration stimulating cAMP accumulation (GPRC6A [2]): 60 ng/mL

mouse OCN: in b69: synthetic mouse OCN of Fig 7 (GSPEFYLGASVPSPDPLEPTREQCELNPACDELSDQYGLKTAYKRIYGITI; ends and bridges not checked; cysteine pairing not given here)
change in cell impedance (cell index) (INS-1(832) cells): significant, concentration-dependent activity
